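Each compound was tested at five concentrations against cells in 96-well plates for 48 hours. GI50 is the concentration that inhibits growth by half.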 Active and inactive are the calls of the source. Rule as the data show it: active = GI50 up to about 1.1 µM and inactive = higher.
How the values were obtained:
Assay in all cases: growth of human tumour cells (NCI), 48 h
786-0 = system: 786-0
A498 = system: A498
A549 = system: A549
BT-549 = system: BT-549
CAKI-1 = system: CAKI-1
CCRF-CEM = system: CCRF-CEM
COLO 205 = system: COLO 205
DU-145 = system: DU-145
EKVX = system: EKVX
HCC 2998 = system: HCC 2998
HCT-116 = system: HCT-116
HCT-15 = system: HCT-15
HL-60 = system: HL-60
HOP-62 = system: HOP-62
HOP-92 = system: HOP-92
HT-29 = system: HT-29
Hs-578T = system: Hs-578T
IGROV-1 = system: IGROV-1
K562 = system: K562
KM12 = system: KM12
LOX IMVI = system: LOX IMVI
M14 = system: M14
MCF7 = system: MCF7
MDA-MB-231 = system: MDA-MB-231
MDA-MB-435 = system: MDA-MB-435
MDA-N = system: MDA-N
MOLT-4 = system: MOLT-4
Malme-3M = system: Malme-3M
NCI-H23 = system: NCI-H23
NCI-H460 = system: NCI-H460
NCI-H522 = system: NCI-H522
NCI/ADR-RES = system: NCI/ADR-RES
OVCAR-3 = system: OVCAR-3
OVCAR-4 = system: OVCAR-4
OVCAR-5 = system: OVCAR-5
OVCAR-8 = system: OVCAR-8
PC-3 = system: PC-3
RPMI-8226 = system: RPMI-8226
RXF 393 = system: RXF 393
SF-268 = system: SF-268
SF-295 = system: SF-295
SF-539 = system: SF-539
SK-MEL-28 = system: SK-MEL-28
SK-MEL-2 = system: SK-MEL-2
SK-MEL-5 = system: SK-MEL-5
SK-OV-3 = system: SK-OV-3
SN12C = system: SN12C
SNB-19 = system: SNB-19
SR = system: SR
SW-620 = system: SW-620
T47D = system: T47D
TK-10 = system: TK-10
U-251 = system: U-251
UACC-257 = system: UACC-257
UACC-62 = system: UACC-62
UO-31 = system: UO-31
ACHN = system: ACHN
NCI-H226 = system: NCI-H226
SNB-75 = system: SNB-75

Q: What does the source list for `COc1ccc(C2(C3c4cc(OC)c(OC)cc4CCN3C)SCCCS2)cc1O` (centres undefined)?
A: GI50 (786-0): > 100 µM (inactive); GI50 (A498): > 100 µM (inactive); GI50 (A549): > 100 µM (inactive); GI50 (BT-549): > 100 µM (inactive); GI50 (CAKI-1): > 100 µM (inactive); GI50 (CCRF-CEM): > 100 µM (inactive); GI50 (COLO 205): > 100 µM (inactive); GI50 (DU-145): > 100 µM (inactive); GI50 (EKVX): 60 µM (inactive); GI50 (HCC 2998): > 100 µM (inactive); GI50 (HCT-116): 67.9 µM (inactive); GI50 (HCT-15): > 100 µM; GI50 (HL-60): > 100 µM (inactive); GI50 (HOP-62): > 100 µM (inactive); GI50 (HOP-92): 76.2 µM (inactive); GI50 (HT-29): 49.3 µM (inactive); GI50 (Hs-578T): 23.7 µM (inactive); GI50 (IGROV-1): > 100 µM (inactive); GI50 (K562): 95.1 µM (inactive); GI50 (KM12): 71.8 µM (inactive); GI50 (LOX IMVI): > 100 µM (inactive); GI50 (M14): > 100 µM (inactive); GI50 (MCF7): > 100 µM (inactive); GI50 (MDA-MB-231): > 100 µM (inactive); GI50 (MDA-MB-435): > 100 µM (inactive); GI50 (MDA-N): > 100 µM (inactive); GI50 (MOLT-4): 26 µM (inactive); GI50 (Malme-3M): > 100 µM (inactive); GI50 (NCI-H23): > 100 µM (inactive); GI50 (NCI-H460): > 100 µM (inactive); GI50 (NCI-H522): 41.7 µM (inactive); GI50 (NCI/ADR-RES): 94 µM (inactive); GI50 (OVCAR-3): > 100 µM (inactive); GI50 (OVCAR-4): > 100 µM (inactive); GI50 (OVCAR-5): > 100 µM (inactive); GI50 (OVCAR-8): > 100 µM (inactive); GI50 (PC-3): 47.1 µM (inactive); GI50 (RPMI-8226): > 100 µM (inactive); GI50 (RXF 393): > 100 µM (inactive); GI50 (SF-268): > 100 µM (inactive); GI50 (SF-295): 71.8 µM (inactive); GI50 (SF-539): > 100 µM (inactive); GI50 (SK-MEL-28): 68.2 µM (inactive); GI50 (SK-MEL-2): > 100 µM (inactive); GI50 (SK-MEL-5): > 100 µM (inactive); GI50 (SK-OV-3): 72.9 µM (inactive); GI50 (SN12C): > 100 µM (inactive); GI50 (SNB-19): > 100 µM (inactive); GI50 (SR): 68.1 µM (inactive); GI50 (SW-620): > 100 µM (inactive); GI50 (T47D): > 100 µM (inactive); GI50 (TK-10): > 100 µM (inactive); GI50 (U-251): > 100 µM (inactive); GI50 (UACC-257): > 100 µM (inactive); GI50 (UACC-62): > 100 µM (inactive); GI50 (UO-31): > 100 µM (inactive)

Q: Which results are given for `Cc1cc(O)c2c(c1)C(=O)C=C(Br)C2=O`?
A: GI50 (786-0): 17.5 µM (inactive); GI50 (A498): 18.9 µM (inactive); GI50 (A549): 30.3 µM (inactive); GI50 (ACHN): 15.6 µM (inactive); GI50 (BT-549): 16.9 µM (inactive); GI50 (CAKI-1): 12.5 µM (inactive); GI50 (CCRF-CEM): 0.255 µM (active); GI50 (COLO 205): 6.32 µM (inactive); GI50 (DU-145): 12.4 µM (inactive); GI50 (EKVX): 24.8 µM (inactive); GI50 (HCC 2998): > 43.7 µM (inactive); GI50 (HCT-116): 16.6 µM (inactive); GI50 (HCT-15): 10.2 µM; GI50 (HL-60): 0.724 µM (active); GI50 (HOP-62): > 63.5 µM (inactive); GI50 (HOP-92): 13.8 µM (inactive); GI50 (HT-29): 21.1 µM (inactive); GI50 (Hs-578T): 13 µM (inactive); GI50 (IGROV-1): > 43.7 µM (inactive); GI50 (K562): 0.807 µM (active); GI50 (KM12): 27.2 µM (inactive); GI50 (LOX IMVI): 12.8 µM (inactive); GI50 (M14): 15.8 µM (inactive); GI50 (MCF7): 7.82 µM (inactive); GI50 (MDA-MB-231): 16.9 µM (inactive); GI50 (MDA-MB-435): 14.5 µM (inactive); GI50 (MDA-N): 15.3 µM (inactive); GI50 (MOLT-4): 0.52 µM (active); GI50 (Malme-3M): 7.69 µM (inactive); GI50 (NCI-H226): 19.2 µM (inactive); GI50 (NCI-H23): 17.1 µM (inactive); GI50 (NCI-H460): 19.9 µM (inactive); GI50 (NCI-H522): 2.94 µM (inactive); GI50 (NCI/ADR-RES): 19.2 µM (inactive); GI50 (OVCAR-3): 16.7 µM (inactive); GI50 (OVCAR-4): 11.8 µM (inactive); GI50 (OVCAR-5): 16.1 µM (inactive); GI50 (OVCAR-8): 19.6 µM (inactive); GI50 (PC-3): 17.8 µM (inactive); GI50 (RPMI-8226): 6.75 µM (inactive); GI50 (SF-268): 30.5 µM (inactive); GI50 (SF-295): 36 µM (inactive); GI50 (SF-539): 16 µM (inactive); GI50 (SK-MEL-28): 15.4 µM (inactive); GI50 (SK-MEL-2): 17.1 µM (inactive); GI50 (SK-MEL-5): 14.4 µM (inactive); GI50 (SK-OV-3): > 100 µM (inactive); GI50 (SN12C): 16.4 µM (inactive); GI50 (SNB-19): > 65.8 µM (inactive); GI50 (SNB-75): 16.8 µM (inactive); GI50 (SR): 1.3 µM (inactive); GI50 (SW-620): 3.42 µM (inactive); GI50 (T47D): 5.68 µM (inactive); GI50 (TK-10): 16.4 µM (inactive); GI50 (U-251): 29.7 µM (inactive); GI50 (UACC-257): 13.1 µM (inactive); GI50 (UACC-62): 16.6 µM (inactive); GI50 (UO-31): 15.5 µM (inactive)

Q: Which results are given for `COC(=O)c1ccc(NCC2=CC(=O)C=CC2=O)cc1O`?
A: GI50 (786-0): 15.7 µM (inactive); GI50 (A498): 17.2 µM (inactive); GI50 (A549): 32.6 µM (inactive); GI50 (ACHN): 13.8 µM (inactive); GI50 (BT-549): 11.4 µM (inactive); GI50 (CAKI-1): 18.6 µM (inactive); GI50 (CCRF-CEM): 5.32 µM (inactive); GI50 (COLO 205): 13.2 µM (inactive); GI50 (DU-145): 15.2 µM (inactive); GI50 (EKVX): 17.7 µM (inactive); GI50 (HCT-116): 17.2 µM (inactive); GI50 (HCT-15): 16.5 µM; GI50 (HOP-62): 18.1 µM (inactive); GI50 (HOP-92): 2.92 µM (inactive); GI50 (HT-29): 19.6 µM (inactive); GI50 (Hs-578T): 48.6 µM (inactive); GI50 (IGROV-1): 17.3 µM (inactive); GI50 (K562): 3.33 µM (inactive); GI50 (LOX IMVI): 16.8 µM (inactive); GI50 (M14): 20.9 µM (inactive); GI50 (MCF7): 20.8 µM (inactive); GI50 (MDA-MB-231): 16.8 µM (inactive); GI50 (MDA-MB-435): 29.4 µM (inactive); GI50 (MDA-N): 16.4 µM (inactive); GI50 (MOLT-4): 8.87 µM (inactive); GI50 (Malme-3M): 10.6 µM (inactive); GI50 (NCI-H226): 19.5 µM (inactive); GI50 (NCI-H23): 17.9 µM (inactive); GI50 (NCI-H460): 21 µM (inactive); GI50 (NCI-H522): 2.11 µM (inactive); GI50 (NCI/ADR-RES): 18.1 µM (inactive); GI50 (OVCAR-3): 11.5 µM (inactive); GI50 (OVCAR-4): 16.6 µM (inactive); GI50 (OVCAR-5): 18.8 µM (inactive); GI50 (OVCAR-8): 15.5 µM (inactive); GI50 (PC-3): 31.8 µM (inactive); GI50 (RXF 393): 19.9 µM (inactive); GI50 (SF-268): 28.9 µM (inactive); GI50 (SF-295): 17.7 µM (inactive); GI50 (SF-539): 13.5 µM (inactive); GI50 (SK-MEL-28): 46 µM (inactive); GI50 (SK-MEL-2): 44.2 µM (inactive); GI50 (SK-MEL-5): 24.4 µM (inactive); GI50 (SK-OV-3): 20.4 µM (inactive); GI50 (SN12C): 21.5 µM (inactive); GI50 (SNB-19): 19.7 µM (inactive); GI50 (SNB-75): 19 µM (inactive); GI50 (SR): > 100 µM (inactive); GI50 (SW-620): 24.3 µM (inactive); GI50 (T47D): 8.43 µM (inactive); GI50 (TK-10): 14.4 µM (inactive); GI50 (U-251): 36.5 µM (inactive); GI50 (UACC-257): 16.2 µM (inactive); GI50 (UACC-62): 15.7 µM (inactive); GI50 (UO-31): 12.7 µM (inactive)

— ChEMBL document CHEMBL1201862, “PubChem BioAssay data set” (2004)
